Source: PubChem BioAssay AID248 (DTP/NCI, 2004)
Values joined by “and” are separate entries in the source; they are usually repeats but may differ in a detail not shown here. Equal values may be shown once. Inconclusive results and toxic doses are left out. Square brackets hold non-standard residues; d marks the D form. Peptide text beside a SMILES is read from it. * marks the point of attachment. ξ: configuration not given here. ξY = NC(Cc1ccc(O)cc1)C(=O)O; Cbz = O=C(OCc1ccccc1)*; OBn = c1ccc(CO*)cc1

Test system: L1210 leukemia ip in BDF1 mice, survival T/C
Test: NCI In Vivo Anticancer Drug Screen. Data for tumor model L1210 Leukemia (intraperitoneal) in B6D2F1 (BDF1) mice
Conditions: endpoint: mean survival time, higher = longer survival
In short: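 Tumor cells were implanted, animals were treated, and survival was followed. The result divides the treated measurement by the vehicle-control measurement.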

[1] = dose: 100.0 mg/kg/injection, schedule: Q01DX009 (ip), vehicle: Klucel (hydroxypropylcellulose) (HPC)
[2] = dose: 100.0 mg/kg/injection, schedule: Q04DX002 (ip), vehicle: Klucel (hydroxypropylcellulose) (HPC)
[3] = dose: 200.0 mg/kg/injection, schedule: Q01DX009 (ip), vehicle: Klucel (hydroxypropylcellulose) (HPC)
[4] = dose: 200.0 mg/kg/injection, schedule: Q04DX002 (ip), vehicle: Klucel (hydroxypropylcellulose) (HPC)
[5] = dose: 400.0 mg/kg/injection, schedule: Q01DX009 (ip), vehicle: Klucel (hydroxypropylcellulose) (HPC)
[6] = dose: 400.0 mg/kg/injection, schedule: Q04DX002 (ip), vehicle: Klucel (hydroxypropylcellulose) (HPC)
[7] = dose: 100.0 mg/kg/injection, schedule: Q04DX003 (ip), vehicle: Klucel (hydroxypropylcellulose) (HPC)
[8] = dose: 200.0 mg/kg/injection, schedule: Q04DX003 (ip), vehicle: Klucel (hydroxypropylcellulose) (HPC)
[9] = dose: 400.0 mg/kg/injection, schedule: Q04DX003 (ip), vehicle: Klucel (hydroxypropylcellulose) (HPC)
[10] = dose: 100.0 mg/kg/injection, schedule: Q01DX001 (ip), vehicle: saline
[11] = dose: 100.0 mg/kg/injection, schedule: Q04DX003 (ip), vehicle: saline
[12] = dose: 200.0 mg/kg/injection, schedule: Q01DX001 (ip), vehicle: saline
[13] = dose: 200.0 mg/kg/injection, schedule: Q04DX003 (ip), vehicle: saline
[14] = dose: 100.0 mg/kg/injection, schedule: Q04DX003 (ip), vehicle: saline with Tween-80
[15] = dose: 200.0 mg/kg/injection, schedule: Q04DX003 (ip), vehicle: saline with Tween-80
[16] = dose: 400.0 mg/kg/injection, schedule: Q04DX003 (ip), vehicle: saline with Tween-80
[17] = dose: 100.0 mg/kg/injection, schedule: Q01DX009 (ip), vehicle: saline with Tween-80
[18] = dose: 200.0 mg/kg/injection, schedule: Q01DX009 (ip), vehicle: saline with Tween-80
[19] = dose: 400.0 mg/kg/injection, schedule: Q01DX009 (ip), vehicle: saline with Tween-80
[20] = dose: 50.0 mg/kg/injection, schedule: Q04DX003 (ip), vehicle: Klucel (hydroxypropylcellulose) (HPC)
[21] = dose: 100.0 mg/kg/injection, schedule: Q01DX001 (ip), vehicle: carboxymethylcellulose (CMC)
[22] = dose: 200.0 mg/kg/injection, schedule: Q01DX001 (ip), vehicle: carboxymethylcellulose (CMC)
[23] = dose: 400.0 mg/kg/injection, schedule: Q01DX001 (ip), vehicle: carboxymethylcellulose (CMC)
[24] = dose: 12.5 mg/kg/injection, schedule: Q01DX009 (ip), vehicle: saline with Tween-80

With `O=C1CCCCC1CO` (stereo not given) the T/C [1] was 96 % of control, the T/C [2] was 96 % of control and the T/C [3] was 100 % of control. For the same molecule, the T/C [4] was 100 % of control, the T/C [5] was 89 % of control and the T/C [6] was 86 % of control.
In the case of `CCOC(=O)/C=C(\c1ccccc1)c1ccc([N+](=O)[O-])cc1`, the T/C (dose: 100.0 mg/kg/injection, schedule: Q01DX001 (ip), vehicle: Klucel (hydroxypropylcellulose) (HPC)) is reported as 94 % of control, the T/C [1] is reported as 105 % of control and 90 % of control and the T/C [2] is reported as 93 % of control and 98 % of control. The T/C [7] was 107 % of control, the T/C (dose: 200.0 mg/kg/injection, schedule: Q01DX001 (ip), vehicle: Klucel (hydroxypropylcellulose) (HPC)) was 98 % of control and the T/C [3] was 103 % of control and 90 % of control. For the same molecule, the T/C [4] was 100 % of control and 106 % of control, the T/C [8] was 102 % of control and the T/C (dose: 400.0 mg/kg/injection, schedule: Q01DX001 (ip), vehicle: Klucel (hydroxypropylcellulose) (HPC)) was 102 % of control. For the same molecule, the T/C [5] was 106 % of control and 110 % of control, the T/C [6] was 98 % of control and 100 % of control and the T/C [9] was 98 % of control.
With `CCCNc1ncnc2c1cnn2C` the T/C (dose: 50.0 mg/kg/injection, schedule: Q01DX009 (ip), vehicle: saline) was 124 % of control, the T/C (dose: 50.0 mg/kg/injection, schedule: Q04DX003 (ip), vehicle: saline) was 100 % of control and the T/C [10] was 107 % of control. For the same molecule, the T/C [11] was 102 % of control, the T/C [12] was 104 % of control and the T/C [13] was 103 % of control.
For `C1CCC2C(C1)CCCC2C1C2C3CCCCC3CCC2C2CCC3CCCCC3C21` (stereo not given), the T/C [14] was 91 % of control, the T/C [15] was 91 % of control and the T/C [16] was 88 % of control.
`Cc1ccc([N+](=O)[O-])cc1NC(=O)COc1cc(Cl)c(Cl)cc1Cl` was tested, and the T/C [17] was 89 % of control, the T/C [18] was 94 % of control and the T/C [19] was 98 % of control.
With `C1CCC2(CC1)SC1(CCCCC1)SC1(CCCCC1)S2` the T/C (dose: 100.0 mg/kg/injection, schedule: Q01DX009 (ip), vehicle: other) was 94 % of control, the T/C (dose: 100.0 mg/kg/injection, schedule: Q04DX003 (ip), vehicle: other) was 95 % of control and the T/C (dose: 200.0 mg/kg/injection, schedule: Q01DX009 (ip), vehicle: other) was 95 % of control. The T/C (dose: 200.0 mg/kg/injection, schedule: Q04DX003 (ip), vehicle: other) was 97 % of control, the T/C (dose: 400.0 mg/kg/injection, schedule: Q01DX009 (ip), vehicle: other) was 92 % of control and the T/C (dose: 400.0 mg/kg/injection, schedule: Q04DX003 (ip), vehicle: other) was 97 % of control.
With `O=S(=O)(O)c1ccc2c(N=Nc3ccc(S(=O)(=O)N(CCCl)CCCl)cc3)c(O)c(S(=O)(=O)O)cc2c1` the T/C [20] was 106 % of control, the T/C [7] was 90 % of control and the T/C [8] was 93 % of control.
In the case of `COCC(=O)C(C(C)=O)C(c1ccncc1)C(C(C)=O)C(=O)COC` (stereo not given), the T/C [17] is reported as 98 % of control, the T/C [18] is reported as 97 % of control and the T/C [19] is reported as 93 % of control.
`C=C(C)COc1cc(C=NCCCC)c(C)cc1C` was tested, and the T/C [14] was 96 % of control, the T/C [15] was 102 % of control and the T/C [16] was 96 % of control.
`O=[N+]([O-])c1ccc(S(=O)(=O)O/N=C2\c3ccccc3-c3ccc([N+](=O)[O-])cc32)cc1` was tested, and the T/C [1] was 161 % of control, the T/C [7] was 97 % of control and the T/C [3] was 109 % of control. For the same molecule, the T/C [8] was 98 % of control, the T/C [5] was 109 % of control and the T/C [9] was 95 % of control.
`Cc1c(Br)sc2ccccc12` was tested, and the T/C [21] was 96 % of control, the T/C [22] was 96 % of control and the T/C [23] was 107 % of control.
For `CCC(C)(O)CC`, the T/C [10] was 97 % of control, the T/C [12] was 110 % of control and the T/C (dose: 400.0 mg/kg/injection, schedule: Q01DX001 (ip), vehicle: saline) was 110 % of control.
With `O=C(NC(CSC(c1ccc(Cl)cc1)c1ccc(Cl)cc1)C(=O)O)OCc1ccccc1` (stereo not given) the T/C (dose: 25.0 mg/kg/injection, schedule: Q04DX003 (ip), vehicle: Klucel (hydroxypropylcellulose) (HPC)) was 102 % of control, the T/C [20] was 91 % of control and the T/C [7] was 97 % of control.
For `CC1(C)N=C(N)N=C(N)N1c1ccc(Cl)c(C(F)(F)F)c1`, the T/C (dose: 8.33 mg/kg/injection, schedule: Q01DX009 (ip), vehicle: saline with Tween-80) was 115 % of control, the T/C (dose: 8.8 mg/kg/injection, schedule: Q04DX003 (ip), vehicle: saline with Tween-80) was 107 % of control and the T/C [24] was 118 % of control. For the same molecule, the T/C (dose: 13.3 mg/kg/injection, schedule: Q04DX003 (ip), vehicle: saline with Tween-80) was 104 % of control, the T/C (dose: 20.0 mg/kg/injection, schedule: Q04DX003 (ip), vehicle: saline with Tween-80) was 101 % of control and the T/C (dose: 25.0 mg/kg/injection, schedule: Q01DX009 (ip), vehicle: saline with Tween-80) was 116 % of control. For the same molecule, the T/C (dose: 30.0 mg/kg/injection, schedule: Q04DX003 (ip), vehicle: saline with Tween-80) was 106 % of control, the T/C (dose: 33.0 mg/kg/injection, schedule: Q01DX009 (ip), vehicle: saline with Tween-80) was 118 % of control and the T/C (dose: 45.0 mg/kg/injection, schedule: Q04DX003 (ip), vehicle: saline with Tween-80) was 115 % of control. The T/C (dose: 50.0 mg/kg/injection, schedule: Q01DX009 (ip), vehicle: saline with Tween-80) was 98 % of control and the T/C [14] was 108 % of control.
For `Cc1ccc(Cl)cc1NC(=O)N1CCCCC1C` (stereo not given), the T/C (dose: 50.0 mg/kg/injection, schedule: Q04DX002 (ip), vehicle: saline with Tween-80) was 106 % of control and 92 % of control, the T/C (dose: 100.0 mg/kg/injection, schedule: Q01DX001 (ip), vehicle: saline with Tween-80) was 109 % of control and the T/C [17] was 95 % of control and 96 % of control. For the same molecule, the T/C [14] was 97 % of control, the T/C (dose: 200.0 mg/kg/injection, schedule: Q01DX001 (ip), vehicle: saline with Tween-80) was 103 % of control and the T/C [18] was 94 % of control and 100 % of control. The T/C [15] was 103 % of control, the T/C (dose: 400.0 mg/kg/injection, schedule: Q01DX001 (ip), vehicle: saline with Tween-80) was 104 % of control and the T/C [16] was 95 % of control.
`CC(=O)C(C(C)=O)C(C)=O.CC(=O)C(C(C)=O)C(C)=O.CC(=O)C(C(C)=O)C(C)=O.[Cr]` was tested, and the T/C (dose: 50.0 mg/kg/injection, schedule: Q01DX001 (ip), vehicle: carboxymethylcellulose (CMC)) was 100 % of control, the T/C [21] was 94 % of control and the T/C [22] was 105 % of control. The T/C [23] was 100 % of control.
In the case of `COc1ccccc1CNc1ncnc2nc[nH]c12`, the T/C (dose: 100.0 mg/kg/injection, schedule: Q04DX003 (ip), vehicle: acetone) is reported as 97 % of control, the T/C (dose: 200.0 mg/kg/injection, schedule: Q04DX003 (ip), vehicle: acetone) is reported as 94 % of control and the T/C (dose: 400.0 mg/kg/injection, schedule: Q04DX003 (ip), vehicle: acetone) is reported as 107 % of control.
In the case of `O=NN1C(=O)N(CCCl)C(=O)C1(c1ccccc1)c1ccccc1`, the T/C [11] is reported as 96 % of control, the T/C [13] is reported as 97 % of control and the T/C (dose: 400.0 mg/kg/injection, schedule: Q04DX003 (ip), vehicle: saline) is reported as 102 % of control.
`Cc1ccc(-c2ccno2)cc1` was tested, and the T/C [21] was 96 % of control, the T/C [22] was 92 % of control and the T/C [23] was 97 % of control.
For `CC(=O)Nc1ccc(NCc2cnc3nc(N)nc(N)c3n2)cc1`, the T/C (dose: 20.0 mg/kg/injection, schedule: Q01DX009 (ip), vehicle: Klucel (hydroxypropylcellulose) (HPC)) was 96 % of control, the T/C (dose: 40.0 mg/kg/injection, schedule: Q01DX009 (ip), vehicle: Klucel (hydroxypropylcellulose) (HPC)) was 104 % of control and the T/C (dose: 80.0 mg/kg/injection, schedule: Q01DX009 (ip), vehicle: Klucel (hydroxypropylcellulose) (HPC)) was 96 % of control.
`COc1ccc(OC)c2cc3ccccc3cc12` was tested, and the T/C [21] was 106 % of control, the T/C [22] was 104 % of control and the T/C [23] was 93 % of control.
For `O=C(c1ccccc1)C1C(c2ccccc2)OP(c2ccccc2)(c2ccccc2)(c2ccccc2)C1c1ccccc1` (stereo not given), the T/C (dose: 6.25 mg/kg/injection, schedule: Q04DX003 (ip), vehicle: saline with Tween-80) was 102 % of control, the T/C [24] was 97 % of control and the T/C (dose: 25.0 mg/kg/injection, schedule: Q04DX003 (ip), vehicle: saline with Tween-80) was 94 % of control.
With `O=C(CNC(=O)OCc1ccccc1)NC(Cc1ccc(O)cc1)C(=O)OCc1ccccc1` (stereo not drawn) (Cbz-Gly-[ξY]-OBn) the T/C [7] was 96 % of control, the T/C [8] was 97 % of control and the T/C [9] was 91 % of control.
